# Experimental data: EP0735879B1, “USE OF AMINO CYCLODEXTRINS FOR THE AQUEOUS SOLUBILISATION OF DIBENZAZEPINES FOR USE AS AN ANTIEPILEPTIC AGENT” (COMMISSARIAT A L'ENERGIE ATOMIQUE, priority 1993, dated 1995)
# Where “and” joins values, the source holds several entries; their conditions need not be identical. Equal values may be shown once.
# Assays:
# physchem = format: physicochemical; settings: 25°C, read-out: solubilité de la carbamazépine
# Method: Dans cet exemple on évalue la solubilisation de la carbamazépine par différents dérivés de cyclodextrines dans des conditions standardisées. Les mesures de solubilité sont réalisées à 25°C en présence de la cyclodextrine considérée à la concentration de 25 mmol/l, le pH de la solution étant ajusté dans tous les cas à 7,4 pour simuler autant que posible les conditions physiologiques.
# [1] = 25°C; cited from earlier work
# in vitro = settings: human, erythrocytes, pH 7
# Method: Les propriétés hémolytiques du chlorhydrate ont été testées en mettant en contact 0,4 ml d'une suspension d'érythrocytes humains avec 4 ml de la solution du chlorhydrate dans 10 mmol d'un tampon phosphate isotonique à un pH de 7,4, pendant 30 minutes à 37°C.
# [2] = Solubility in water of the cyclodextrin; format: physicochemical; settings: 20°C, read-out: solubilité dans l'eau
# Escherichia Coli = assay: Ames test, mutagenicity; format: cell-based; settings: test de AMES, souches d'Escherichia Coli
# [3] = system: rat Sprague-Dawley mâle et femelle; assay: Acute toxicity, intravenous injection; format: in vivo; settings: voie intraveineuse, chlorhydrate, 2g/kg de poids corporel
# Salmonella typhimurium = assay: Ames test, mutagenicity; format: cell-based; settings: test de AMES, souches de Salmonella typhimurium
# [4] = pH of an aqueous solution of the hydrochloride; format: physicochemical; settings: solution à 1 % en poids du chlorhydrate dans de l'eau
smiles,measurement,setting,value
"NC(=O)N1c2ccccc2C=Cc2ccccc21 [Carbamazépine, carbamazépine]",solubility,"physchem; phosphate buffer, pH 7.4, aqueous buffer, Tampon Phosphate 7,4, without cyclodextrin",< 70 µM
same,solubility,"physchem; pure water, water, Eau pure, without cyclodextrin",< 50 µM
same,solubilité dans l'eau pure,[1],12 µg/mL
"OC[C@H]1O[C@@H]2O[C@H]3[C@H](O)[C@@H](O)[C@@H](O[C@H]4[C@H](O)[C@@H](O)[C@@H](O[C@H]5[C@H](O)[C@@H](O)[C@@H](O[C@H]6[C@H](O)[C@@H](O)[C@@H](O[C@H]7[C@H](O)[C@@H](O)[C@@H](O[C@H]8[C@H](O)[C@@H](O)[C@@H](O[C@H]1[C@H](O)[C@H]2O)O[C@@H]8CO)O[C@@H]7CO)O[C@@H]6CO)O[C@@H]5CO)O[C@@H]4CO)O[C@@H]3CO [β-CD, β-cyclodextrine, reference compound]",HC50 at 0.5 h,in vitro,5 mM and ~6000 µg/mL
"NC[C@H]1O[C@@H]2O[C@H]3[C@H](O)[C@@H](O)[C@@H](O[C@H]4[C@H](O)[C@@H](O)[C@@H](O[C@H]5[C@H](O)[C@@H](O)[C@@H](O[C@H]6[C@H](O)[C@@H](O)[C@@H](O[C@H]7[C@H](O)[C@@H](O)[C@@H](O[C@H]8[C@H](O)[C@@H](O)[C@@H](O[C@H]1[C@H](O)[C@H]2O)O[C@@H]8CO)O[C@@H]7CO)O[C@@H]6CO)O[C@@H]5CO)O[C@@H]4CO)O[C@@H]3CO [β-CD-NH2, mono-6-amino-β-cyclodextrine]",solubility,[2],200 mg/mL
same,HC50 at 0.5 h,in vitro,~30 mM and ~35000 µg/mL
same,activité mutagène,Escherichia Coli,aucune activité mutagène
same,mortalité,[3],aucune mortalité
same,activité mutagène,Salmonella typhimurium,aucune activité mutagène
same,pH,[4],"6,8"
